Measurements as given in patent US11780832B2, “Lactivicin compounds, their preparation and use as antibacterial agents” (priority 2021, dated 2023).
Values after ≈ are worked out from the molar mass of the structure shown.

Key:
Assay in all cases: MIC, CLSI broth microdilution
Type in all cases: cell-based
[1] = system: Acinetobacter baumannii ATCC 19606; settings: ATCC19606
Experimental: (§1) Gram-negative and Gram-positive bacterial strains used during the in vitro minimum inhibitory concentration (MIC) determination were obtained either from the American Type Culture Collection (ATCC) or from clinical specimens. All strains were characterized genotypically and the respective antibiotic resistance markers for each strain were identified.
(§2) Isolates were sub-cultured onto appropriate media and stocked in skim milk at −80° C. Following two subcultures from frozen stock, in vitro antimicrobial susceptibility testing was performed using the Clinical and Laboratory Standards Institute (CLSI) broth microdilution method. Briefly, fresh cultures were suspended in culture media to give a final stock inoculum size of 5×10^7 colony forming units per milliliter of broth (CFU/mL). […] 100 μL of the stock solutions were added to the first wells in a 96-well plate and were then diluted using a 2-fold dilution method to give a range of 32-0.025 μg/mL. 100 μL of the bacterial suspensions were then added to the 96-well plates to give a final working inoculum size of 5×10^5 CFU/mL. The final compound concentration range was 16-0.0125 μg/mL. […] MICs for comparator agents were determined using custom-designed, in-house prepared 96-well broth microdilution panels.

[2] = system: Citrobacter freundii species complex OXA-181; settings: Citrobacter freundii species complex, OXA-181; read-out: MIC
Experimental: as §1, §2

[3] = system: Enterobacter cloacae species complex NDM-1
Experimental: as §1, §2

[4] = system: Escherichia coli ATCC 25922; settings: ATCC25922
Experimental: as §1, §2

[5] = system: Escherichia coli CMY-2; settings: CMY2
Experimental: as §1, §2

[6] = system: Escherichia coli CTX-M-15; settings: CTXM15
Experimental: as §1, §2

[7] = system: Escherichia coli Empty pSMART plasmid
Experimental: as §1, §2

[8] = system: Escherichia coli Isogenic TEM-10
Experimental: as §1, §2

[9] = system: Escherichia coli Isogenic TEM-26
Experimental: as §1, §2

[10] = system: Escherichia coli SHV-12; settings: SHV12
Experimental: as §1, §2

[11] = system: Escherichia coli pSMART_Cfreundii_AmpC
Experimental: as §1, §2

[12] = system: Escherichia coli pSMART_Ecloacae_AmpC
Experimental: as §1, §2

[13] = system: Klebsiella aerogenes VIM-1, SHV-12
Experimental: as §1, §2

[14] = system: Klebsiella oxytoca KPC-2, TEM-1; settings: KPC-2, TEM-1, read-out: MIC
Experimental: as §1, §2

[15] = system: Klebsiella pneumoniae KPC-2; settings: KPC2
Experimental: as §1, §2

[16] = system: Klebsiella pneumoniae KPC-3; settings: KPC3, KPC-3, read-out: MIC
Experimental: as §1, §2

[17] = system: Klebsiella pneumoniae OXA-163, OXA-1_OXA-30, SHV-1, TEM-1
Experimental: as §1, §2

[18] = system: Klebsiella pneumoniae OXA-48, SHV-1
Experimental: as §1, §2

[19] = system: Klebsiella pneumoniae SHV-12; settings: SHV12, SHV-12, read-out: MIC
Experimental: as §1, §2

[20] = system: Pseudomonas aeruginosa ATCC 27853; settings: ATCC27853
Experimental: as §1, §2

[21] = system: Pseudomonas aeruginosa AmpC overexpressed
Experimental: as §1, §2

[22] = system: Pseudomonas aeruginosa OprD negative
Experimental: as §1, §2

[23] = system: Serratia marcescens AmpC overexpressed
Experimental: as §1, §2

[24] = system: Serratia marcescens SME-2; settings: SME2
Experimental: as §1, §2

SMILES	MIC [1] [µg/mL]	MIC [2] [µg/mL]	MIC [3] [µg/mL]	MIC [4] [µg/mL]	MIC [5] [µg/mL]	MIC [6] [µg/mL]	MIC [7] [µg/mL]	MIC [8] [µg/mL]	MIC [9] [µg/mL]	MIC [10] [µg/mL]	MIC [11] [µg/mL]	MIC [12] [µg/mL]	MIC [13] [µg/mL]	MIC [14] [µg/mL]	MIC [15] [µg/mL]	MIC [16] [µg/mL]	MIC [17] [µg/mL]	MIC [18] [µg/mL]	MIC [19] [µg/mL]	MIC [20] [µg/mL]	other results
Nc1nc(/C(=N/OC2(C(=O)O)CCC(Cl)(Cl)CC2)C(=O)N[C@H]2CON(C3(C(=O)O)C[C@H](N4C(=O)c5cc(O)c(O)cc5C4=O)C(=O)O3)C2=O)cs1 (stereo partly drawn) [Cmpd 12, (4S)-2-[(4S)-4-{[(2Z)-2-(2-amino-1,3-thiazol-4-yl)-2-{[(1-carboxy-4,4-dichlorocyclohexyl)oxy]imino}acetyl]amino}-3-oxo-1,2-oxazolidin-2-yl]-4-(5,6-dihydroxy-1,3-dioxo-1,3-dihydro-2H-isoindol-2-yl)-5-oxooxolane-2-carboxylic acid]	0.25 (≈ 0.324 µM)	0.03 (≈ 0.0389 µM)	2 (≈ 2.59 µM)	0.25 (≈ 0.324 µM)	1 (≈ 1.3 µM)	4 (≈ 5.18 µM)	0.03 (≈ 0.0389 µM)	0.06 (≈ 0.0778 µM)	0.06 (≈ 0.0778 µM)	2 (≈ 2.59 µM)	0.06 (≈ 0.0778 µM)	0.06 (≈ 0.0778 µM)	0.5 (≈ 0.648 µM)	≤ 0.015	0.06 (≈ 0.0778 µM)	0.06 (≈ 0.0778 µM)	0.12 (≈ 0.156 µM)	≤ 0.015	0.03 (≈ 0.0389 µM)	0.25 (≈ 0.324 µM)	MIC [21]: 2 µg/mL (≈ 2.59 µM); MIC [22]: 0.25 µg/mL (≈ 0.324 µM); MIC [23]: 0.25 µg/mL (≈ 0.324 µM); MIC [24]: 0.12 µg/mL (≈ 0.156 µM)
CN1CCC(O/N=C(\C(=O)N[C@H]2CON(C3(C(=O)O)C[C@H](N4C(=O)c5cc(O)c(O)cc5C4=O)C(=O)O3)C2=O)c2csc(N)n2)(C(=O)O)CC1 (stereo partly drawn) [Cmpd 9, 4-({(Z)-[1-(2-amino-1,3-thiazol-4-yl)-2-({(4S)-2-[(4S)-2-carboxy-4-(5,6-dihydroxy-1,3-dioxo-1,3-dihydro-2H-isoindol-2-yl)-5-oxooxolan-2-yl]-3-oxo-1,2-oxazolidin-4-yl}amino)-2-oxoethylidene]amino}oxy)-1-methylpiperidine-4-carboxylic acid]	2 (≈ 2.79 µM)	0.25 (≈ 0.348 µM)	8 (≈ 11.1 µM)	0.5 (≈ 0.697 µM)	2 (≈ 2.79 µM)	4 (≈ 5.57 µM)	0.12 (≈ 0.167 µM)	0.12 (≈ 0.167 µM)	0.12 (≈ 0.167 µM)	2 (≈ 2.79 µM)	0.25 (≈ 0.348 µM)	0.25 (≈ 0.348 µM)	0.5 (≈ 0.697 µM)	0.03 (≈ 0.0418 µM)	0.25 (≈ 0.348 µM)	0.25 (≈ 0.348 µM)	0.25 (≈ 0.348 µM)	0.12 (≈ 0.167 µM)	0.12 (≈ 0.167 µM)	4 (≈ 5.57 µM)	MIC [21]: > 16 µg/mL; MIC [22]: > 16 µg/mL; MIC [23]: 4 µg/mL (≈ 5.57 µM); MIC [24]: 0.5 µg/mL (≈ 0.697 µM)
Nc1nc(/C(=N/OC2(C(=O)O)CC3CCC(C2)O3)C(=O)N[C@H]2CON(C3(C(=O)O)C[C@H](N4Cc5cc(O)c(O)cc5C4=O)C(=O)O3)C2=O)cs1 (stereo partly drawn) [Cmpd 30, 3-({(Z)-[1-(2-amino-1,3-thiazol-4-yl)-2-({(4S)-2-[(4S)-2-carboxy-4-(5,6-dihydroxy-1-oxo-1,3-dihydro-2H-isoindol-2-yl)-5-oxooxolan-2-yl]-3-oxo-1,2-oxazolidin-4-yl}amino)-2-oxoethylidene]amino}oxy)-8-oxabicyclo[3.2.1]octane-3-carboxylic acid]	0.5 (≈ 0.698 µM)	0.12 (≈ 0.167 µM)	4 (≈ 5.58 µM)	1 (≈ 1.4 µM)	4 (≈ 5.58 µM)	8 (≈ 11.2 µM)	1 (≈ 1.4 µM)	0.12 (≈ 0.167 µM)	0.5 (≈ 0.698 µM)	8 (≈ 11.2 µM)	0.25 (≈ 0.349 µM)	0.25 (≈ 0.349 µM)	0.12 (≈ 0.167 µM)	0.03 (≈ 0.0419 µM)	0.03 (≈ 0.0419 µM)	0.12 (≈ 0.167 µM)	1 (≈ 1.4 µM)	0.06 (≈ 0.0837 µM)	0.25 (≈ 0.349 µM)	4 (≈ 5.58 µM)	MIC [21]: 4 µg/mL (≈ 5.58 µM); MIC [22]: 1 µg/mL (≈ 1.4 µM); MIC [23]: 0.5 µg/mL (≈ 0.698 µM); MIC [24]: 0.5 µg/mL (≈ 0.698 µM)
Nc1nc(/C(=N/OC2(C(=O)O)CCOCC2)C(=O)N[C@H]2CON(C3(C(=O)O)C[C@H](N4Cc5cc(O)c(O)cc5C4=O)C(=O)O3)C2=O)cs1 (stereo partly drawn) [Cmpd 29, 4-({(Z)-[1-(2-amino-1,3-thiazol-4-yl)-2-({(4S)-2-[(4S)-2-carboxy-4-(5,6-dihydroxy-1-oxo-1,3-dihydro-2H-isoindol-2-yl)-5-oxooxolan-2-yl]-3-oxo-1,2-oxazolidin-4-yl}amino)-2-oxoethylidene]amino}oxy)oxane-4-carboxylic acid]	0.12 (≈ 0.174 µM)	0.12 (≈ 0.174 µM)	4 (≈ 5.79 µM)	0.5 (≈ 0.724 µM)	2 (≈ 2.9 µM)	2 (≈ 2.9 µM)	0.5 (≈ 0.724 µM)	0.03 (≈ 0.0434 µM)	0.03 (≈ 0.0434 µM)	2 (≈ 2.9 µM)	0.25 (≈ 0.362 µM)	0.12 (≈ 0.174 µM)	0.25 (≈ 0.362 µM)	0.0149 (≈ 0.0216 µM)	0.0149 (≈ 0.0216 µM)	0.06 (≈ 0.0869 µM)	0.25 (≈ 0.362 µM)	0.03 (≈ 0.0434 µM)	0.06 (≈ 0.0869 µM)	0.5 (≈ 0.724 µM)	MIC [21]: 2 µg/mL (≈ 2.9 µM); MIC [22]: 0.5 µg/mL (≈ 0.724 µM); MIC [23]: 0.25 µg/mL (≈ 0.362 µM); MIC [24]: 0.25 µg/mL (≈ 0.362 µM)
Nc1nc(/C(=N/OC2(C(=O)O)CNC2)C(=O)N[C@H]2CON(C3(C(=O)O)C[C@H](N4C(=O)c5cc(O)c(O)cc5C4=O)C(=O)O3)C2=O)cs1 (stereo partly drawn) [Cmpd 7, 3-({(Z)-[1-(2-amino-1,3-thiazol-4-yl)-2-({(4S)-2-[(4S)-2-carboxy-4-(5,6-dihydroxy-1,3-dioxo-1,3-dihydro-2H-isoindol-2-yl)-5-oxooxolan-2-yl]-3-oxo-1,2-oxazolidin-4-yl}amino)-2-oxoethylidene]amino}oxy)azetidine-3-carboxylic acid]	> 16	1 (≈ 1.48 µM)	> 16	1 (≈ 1.48 µM)	4 (≈ 5.92 µM)	8 (≈ 11.8 µM)	0.12 (≈ 0.178 µM)	0.12 (≈ 0.178 µM)	0.25 (≈ 0.37 µM)	1 (≈ 1.48 µM)	1 (≈ 1.48 µM)	0.5 (≈ 0.74 µM)	8 (≈ 11.8 µM)	0.12 (≈ 0.178 µM)	0.5 (≈ 0.74 µM)	0.5 (≈ 0.74 µM)	0.5 (≈ 0.74 µM)	0.12 (≈ 0.178 µM)	0.5 (≈ 0.74 µM)	> 16	MIC [21]: > 16 µg/mL; MIC [22]: > 16 µg/mL; MIC [23]: > 16 µg/mL; MIC [24]: 0.5 µg/mL (≈ 0.74 µM)
Nc1nc(/C(=N/OC2(C(=O)O)CC3CCC(C2)O3)C(=O)N[C@H]2CON(C3(C(=O)O)C[C@H](N4C(=O)c5cc(O)c(O)nc5C4=O)C(=O)O3)C2=O)cs1 (stereo partly drawn) [Cmpd 27, 3-({(Z)-[1-(2-amino-1,3-thiazol-4-yl)-2-({(4S)-2-[(4S)-2-carboxy-4-(2,3-dihydroxy-5,7-dioxo-5,7-dihydro-6H-pyrrolo[3,4-b]pyridin-6-yl)-5-oxooxolan-2-yl]-3-oxo-1,2-oxazolidin-4-yl}amino)-2-oxoethylidene]amino}oxy)-8-oxabicyclo[3.2.1]octane-3-carboxylic acid]	1 (≈ 1.37 µM)	0.12 (≈ 0.164 µM)	2 (≈ 2.73 µM)	0.5 (≈ 0.683 µM)	4 (≈ 5.47 µM)	8 (≈ 10.9 µM)	0.25 (≈ 0.342 µM)	0.25 (≈ 0.342 µM)	0.12 (≈ 0.164 µM)	8 (≈ 10.9 µM)	0.25 (≈ 0.342 µM)	0.25 (≈ 0.342 µM)	0.12 (≈ 0.164 µM)	0.0149 (≈ 0.0204 µM)	0.06 (≈ 0.082 µM)	0.12 (≈ 0.164 µM)	0.25 (≈ 0.342 µM)	0.03 (≈ 0.041 µM)	0.12 (≈ 0.164 µM)	4 (≈ 5.47 µM)	MIC [21]: 4 µg/mL (≈ 5.47 µM); MIC [22]: 2 µg/mL (≈ 2.73 µM); MIC [23]: 0.5 µg/mL (≈ 0.683 µM); MIC [24]: 1 µg/mL (≈ 1.37 µM)
